Values of other authors in US4410516A, “1-N(αHydroxy-ω-aminoalkanoyl) derivatives of 5,3',4'-trideoxy- or 5,3', 4'-trideoxy-6'-N- methyl- or 5, 3', 4',6"-tetradeoxykannamyci B and production thereof” (Zaidan Hojin Biseibutsu Kagaku Kenkyu Kai, priority 1981, dated 1983).
“Also recorded” adds a separate entry of the source.

Columns and labels:
[1] = in words, other filings; cited from earlier work
animals, including men = conditions: in words, other filings; cited from earlier work
bacteria = conditions: in words, earlier work / other filings; cited from earlier work

Row | Structure (SMILES) | oto-toxicity [1] | acute toxicity (animals, including men) | antibacterial activity (bacteria)
1 | C[C@@H]1C[C@H](N)[C@@H](O)[C@@H](O[C@@H]2[C@@H](O)[C@H](O[C@H]3O[C@H](CN)CC[C@H]3O)[C@@H](N)C[C@H]2NC(=O)[C@@H](O)CCN)O1 [3',4',4",6"-tetradeoxyamikacin] | low oto-toxicity | low acute toxicity | useful antibacterial activity as high as that of amikacin
2 | C[C@H]1O[C@H](O[C@@H]2[C@@H](O)[C@H](O[C@H]3O[C@H](CN)CC[C@H]3O)[C@@H](N)C[C@H]2NC(=O)[C@@H](O)CCN)[C@H](O)[C@@H](N)[C@@H]1O [3',4',6"-trideoxyamikacin] | low oto-toxicity | low acute toxicity | useful antibacterial activity as high as that of amikacin
3 | NCC[C@H](O)C(=O)N[C@@H]1C[C@H](N)[C@@H](O[C@H]2O[C@H](CN)[C@@H](O)C[C@H]2O)C[C@H]1O[C@H]1O[C@H](CO)[C@@H](O)[C@H](N)[C@H]1O [5,3'-dideoxyamikacin] | low oto-toxicity | low acute toxicity | useful antibacterial activity as high as that of amikacin
4 | NC[C@@H]1CC[C@@H](N)[C@@H](O[C@H]2C[C@@H](O[C@H]3O[C@H](CO)[C@@H](O)[C@H](N)[C@H]3O)[C@H](N)C[C@@H]2N)O1 [5,3',4'-trideoxykanamycin B] | – | – | less active than dibekacin; also recorded: exhibits no useful anti-bacterial activity
5 | NCC[C@H](O)C(=O)N[C@@H]1C[C@H](N)[C@@H](O[C@H]2O[C@H](CN)[C@@H](O)C[C@H]2O)[C@H](O)[C@H]1O[C@H]1O[C@H](CO)[C@@H](O)[C@H](N)[C@H]1O [3'-deoxyamikacin] | low oto-toxicity | low acute toxicity | useful antibacterial activity as high as that of amikacin
6 | C[C@@H]1C[C@H](N)[C@@H](O)[C@@H](O[C@@H]2[C@@H](O)[C@H](O[C@H]3O[C@H](CN)[C@@H](O)[C@H](O)[C@H]3O)[C@@H](N)C[C@H]2NC(=O)[C@@H](O)CCN)O1 [4",6"-dideoxyamikacin] | low oto-toxicity | low acute toxicity | useful antibacterial activity as high as that of amikacin
7 | NCC[C@H](O)C(=O)N[C@@H]1C[C@H](N)[C@@H](O[C@H]2O[C@H](CN)CC[C@H]2O)[C@H](O)[C@H]1O[C@H]1O[C@H](CO)[C@@H](O)[C@H](N)[C@H]1O [3',4'-dideoxyamikacin] | low oto-toxicity | low acute toxicity | useful antibacterial activity as high as that of amikacin
8 | C[C@H]1O[C@H](O[C@@H]2[C@@H](O)[C@H](O[C@H]3O[C@H](CN)[C@@H](O)[C@H](O)[C@H]3O)[C@@H](N)C[C@H]2NC(=O)[C@@H](O)CCN)[C@H](O)[C@@H](N)[C@@H]1O [6"-deoxyamikacin] | low oto-toxicity | low acute toxicity | useful antibacterial activity as high as that of amikacin
9 | NC[C@@H]1CC[C@@H](N)[C@@H](O[C@H]2[C@H](O)[C@@H](O[C@H]3O[C@H](CO)[C@@H](O)[C@H](N)[C@H]3O)[C@H](N)C[C@@H]2N)O1 [Dibekacin, 3',4'-dideoxykanamycin B] | – | – | active against the kanamycin-sensitive bacteria and also against various kanamycin-resistant bacteria
10 | C[C@H]1O[C@H](O[C@@H]2[C@@H](O)[C@H](O[C@H]3O[C@H](CN)[C@@H](O)C[C@H]3O)[C@@H](N)C[C@H]2NC(=O)[C@@H](O)CCN)[C@H](O)[C@@H](N)[C@@H]1O [3',6"-dideoxyamikacin] | low oto-toxicity | low acute toxicity | useful antibacterial activity as high as that of amikacin
11 | C[C@H]1O[C@H](O[C@@H]2C[C@H](O[C@H]3O[C@H](CN)[C@@H](O)C[C@H]3O)[C@@H](N)C[C@H]2NC(=O)[C@@H](O)CCN)[C@H](O)[C@@H](N)[C@@H]1O [5,3',6"-trideoxyamikacin] | low oto-toxicity | low acute toxicity | useful antibacterial activity as high as that of amikacin
